The values below are quoted from earlier work in patent US20040121025A1, “Oral composition for the treatment and prevention of bone loss” (priority 2002, published 2004).

Structures are written as SMILES.

Data set [1] has as its system parathyroid hormone, vitamin D, prostaglandin E2, and interleukin 1-beta. The conditions noted are these: animal study, prostaglandin E2, interleukin 1-beta.
Data set [2] has as its system bone loss. The conditions noted are these: animal studies.
Data set [3] deals with bone loss. To be noted: premenopausal women.
In data set [4] the test system is osteoporosis. The conditions noted are these: including a form of vitamin D commonly used for osteoporosis.
The subject of data set [5] is bone mass. The conditions noted are these: 200 mg three times daily; two years; women age 50-65; placebo groups had significant bone loss.
In data set [6] the test system is parathyroid-stimulated osteoclastic activity. The conditions noted are these: ipriflavone supplementation in rats.
Data set [7] has as its system bone demineralization / bone loss. The conditions noted are these: with supplemental calcium.
For data set [8], the system named is osteoporosis. To be noted: elderly women over the age of 65.
Data set [9] deals with bone loss. To be noted: men.
The test system of data set [10] is bone mineral density. To be noted: women treated with Lupron for six months; supplemental calcium; placebo decreased significantly.
Data set [11] deals with bone loss. The conditions noted are these: animal studies. The source holds these as a separate data set.
In data set [12] the test system is bone mass.
Data set [13] relates to estrogen like effects. To be noted: unlike many of the other isoflavones.

For `CC(C)Oc1ccc2c(=O)c(-c3ccccc3)coc2c1` [ipriflavone, 7-isopropoxysioflavone], the “inhibition of compounds involved in increased resorption of bone” value in data set [1] is given as “inhibited a number of compounds known to be involved in increased resorption of bone”. The “bone loss associated with immobilization” value in data set [2] is “inhibited bone loss”. The “rapid bone loss that follows ovariectomy” value in data set [3] was “prevents the rapid bone loss that follows ovariectomy”. In addition, the “effect on other bone-preserving agents” value in [4] is listed as “enhance the effect of other bone-preserving agents”. In data set [5], the bone mass result is “maintained or improved slightly”. Moreover, the “parathyroid-stimulated osteoclastic activity and resulting hypercalcemia” value in data set [6] is “inhibited in a dosedependent manner”. Also, the “safety and efficacy in halting bone loss” value in data set [7] (post-menopausal women or women who have had their ovaries removed) is “safe and effective in halting bone loss”. In [7] (postmenopausal women), the halting bone demineralization result is recorded as “effective in halting bone demineralization”. Also, in [8], the treatment of osteoporosis result is listed as “particularly effective”. Also, the preventing bone loss entry in data set [9] is reported as “effective in preventing bone loss in men”. For the same molecule, the bone density entry in data set [10] is recorded as “no changes in bone density”. Further, the “bone loss associated with long term steroid use” value in data set [11] is listed as “inhibited bone loss”. Moreover, in data set [12] (0.15-0.30 mg/day estrogen with ipriflavone versus 0.625 mg/day or higher), the “maintaining bone mass with lower doses of estrogen” value was “equally effective in maintaining bone mass”. The “effect on the effects of estrogen on bone” value in [12] (in vivo) is listed as “enhance the effects of estrogen on bone”. In addition, the estrogen like effects entry in data set [13] was “does not exhibit estrogen like effects”.
